Data from paper PMC6868012, “Discovery of novel potential selective HDAC8 inhibitors by combine ligand-based, structure-based virtual screening and in-vitro biological evaluation” (Scientific Reports, 2019).
Where two headings read alike, the source gives them in different places. Values belong to the compound of their own block, whether it stands above or below them.

Key:
HDAC8 [1] = target: T1, HDAC8 (Homo sapiens, UniProt Q9BY41); conditions: cited from earlier work; for Activity (experimental pIC50): Table S2, training and test set molecules, converted from literature IC50; for IC50 / pIC50: Table S1, external validation set
T1 sequence (Q9BY41 1-377): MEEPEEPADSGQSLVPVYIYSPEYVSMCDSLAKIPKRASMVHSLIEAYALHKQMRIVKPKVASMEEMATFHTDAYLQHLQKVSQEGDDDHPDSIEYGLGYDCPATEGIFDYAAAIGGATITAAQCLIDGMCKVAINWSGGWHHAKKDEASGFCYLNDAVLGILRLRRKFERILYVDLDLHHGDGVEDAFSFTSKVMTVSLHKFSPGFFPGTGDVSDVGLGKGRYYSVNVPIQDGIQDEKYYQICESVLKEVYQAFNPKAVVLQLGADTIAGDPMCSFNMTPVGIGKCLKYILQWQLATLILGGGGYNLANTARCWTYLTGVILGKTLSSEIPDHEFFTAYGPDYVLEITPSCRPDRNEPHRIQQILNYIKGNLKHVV

HDAC8 [2] = target: T1, HDAC8; test: HDAC8 activity assay (fluorometric, Sigma CS1010, Boc-Lys(Ac)-AMC); assay type: biochemical; conditions: read-out: HDAC-8 (IC50 in nM)
Protocol: (§1) HDAC 6 and 8 activities were measured according to the manufacturer’s protocol from Sigma (Cat# CS1010). […] Trichostatin A was used as a reference inhibitor. The Perkin Elmer multimode reader, model-Enspire 2300 was used for fluorescence plate reader.

HDAC6 = target: T2, HDAC6 (Homo sapiens, UniProt Q9UBN7); test: HDAC6 activity assay (fluorometric, Sigma CS1010, Boc-Lys(Ac)-AMC); assay type: biochemical; conditions: read-out: HDAC-6 (IC50 in nM)
T2 sequence (Q9UBN7 1-1215): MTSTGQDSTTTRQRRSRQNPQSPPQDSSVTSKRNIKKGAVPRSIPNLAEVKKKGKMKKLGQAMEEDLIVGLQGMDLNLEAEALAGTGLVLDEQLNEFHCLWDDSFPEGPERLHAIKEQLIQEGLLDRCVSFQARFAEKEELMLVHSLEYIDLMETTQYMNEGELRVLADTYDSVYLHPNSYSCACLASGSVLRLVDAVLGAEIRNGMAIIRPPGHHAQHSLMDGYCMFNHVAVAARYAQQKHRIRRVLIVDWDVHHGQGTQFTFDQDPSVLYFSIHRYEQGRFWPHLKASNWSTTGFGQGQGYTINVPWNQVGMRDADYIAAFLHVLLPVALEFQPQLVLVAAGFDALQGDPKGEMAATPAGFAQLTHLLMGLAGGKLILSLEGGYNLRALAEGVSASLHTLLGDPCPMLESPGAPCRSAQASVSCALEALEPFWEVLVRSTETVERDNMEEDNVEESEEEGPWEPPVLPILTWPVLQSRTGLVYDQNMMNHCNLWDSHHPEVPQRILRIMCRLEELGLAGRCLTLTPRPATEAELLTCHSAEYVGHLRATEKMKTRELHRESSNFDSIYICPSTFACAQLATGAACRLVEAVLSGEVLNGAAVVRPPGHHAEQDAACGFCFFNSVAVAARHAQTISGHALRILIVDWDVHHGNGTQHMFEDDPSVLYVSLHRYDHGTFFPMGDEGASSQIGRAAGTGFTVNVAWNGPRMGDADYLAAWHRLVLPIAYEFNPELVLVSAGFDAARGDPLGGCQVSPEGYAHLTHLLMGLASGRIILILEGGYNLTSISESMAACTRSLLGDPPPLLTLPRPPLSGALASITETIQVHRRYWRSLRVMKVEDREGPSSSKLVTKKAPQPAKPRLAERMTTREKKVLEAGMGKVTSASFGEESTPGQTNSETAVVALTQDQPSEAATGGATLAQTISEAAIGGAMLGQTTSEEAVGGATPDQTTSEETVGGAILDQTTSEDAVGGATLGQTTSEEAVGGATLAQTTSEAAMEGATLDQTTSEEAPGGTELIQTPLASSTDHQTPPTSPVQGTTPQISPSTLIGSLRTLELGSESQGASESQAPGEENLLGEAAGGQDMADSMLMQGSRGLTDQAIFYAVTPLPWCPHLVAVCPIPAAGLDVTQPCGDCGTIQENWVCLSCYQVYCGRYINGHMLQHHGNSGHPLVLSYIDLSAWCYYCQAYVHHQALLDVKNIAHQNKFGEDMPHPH
Protocol: as §1

Compound: Cc1ccc(Cc2cn(C)c3cc(C(=O)NO)ccc23)cc1 [compound 2]
Activity (experimental pIC50) (HDAC8 [1]): 7.620

Compound: Cc1ccc(S(=O)(=O)NC(=O)NCc2ccc(C(=O)NO)cc2)cc1 [compound 6]
Activity (experimental pIC50) (HDAC8 [1]): 7.310

Compound: O=C(/C=C/c1ccc2c(c1)nc(-c1ccccn1)n2C[C@H](O)CO)NO [compound 17]
IC50 (HDAC8 [1]): 1400 nM
pIC50 (HDAC8 [1]): 5.854
Activity (experimental pIC50) (HDAC8 [1]): 6.463

Compound: O=C(Cc1ccc(-c2csc(NC(=O)c3cnc([C@H]4CCCNC4)s3)n2)s1)NO [compound 4]
Activity (experimental pIC50) (HDAC8 [1]): 7.398

IC50 (HDAC8 [2]): 9 nM
IC50 (HDAC6): > 100 nM
Compound: COc1cccc(-c2nc(CNc3ccccc3SCC(N)=O)cs2)c1 [SD-01, 2-((2-(((2-(3-methoxyphenyl)thiazol-4-yl)methyl)amino)phenyl)thio)acetamide]

Compound: O=C(Nc1cccc(-c2cc(C(=O)NO)n[nH]2)c1)c1ccccc1 [compound 18]
IC50 (HDAC8 [1]): 150 nM
pIC50 (HDAC8 [1]): 6.824
Activity (experimental pIC50) (HDAC8 [1]): 6.456

Compound: O=C(NO)c1ccc(-c2cccc(CNCCc3ccccn3)c2)s1 [compound 7]
Activity (experimental pIC50) (HDAC8 [1]): 7.301

Compound: CC(/C=C/C(=O)NO)=C\C(C)Cc1ccc(N(C)C)cc1 (stereo not shown) [compound 20]
IC50 (HDAC8 [1]): 220 nM
pIC50 (HDAC8 [1]): 6.658
Activity (experimental pIC50) (HDAC8 [1]): 6.398

Compound: O=C(/C=C/c1ccc2c(c1)ncn2Cc1ccccc1)NO [compound 21]
IC50 (HDAC8 [1]): 52 nM
pIC50 (HDAC8 [1]): 7.284

Compound: O=C(COc1ccccc1)Cc1nc(-c2ccc(C(=O)NO)s2)cs1 [compound 3]
Activity (experimental pIC50) (HDAC8 [1]): 7.420

Compound: O=C(/C=C/c1ccc(CN(CCc2cc3ccccc3[nH]2)C(=O)NC(=O)c2ccccc2)cc1)NO [compound 13]
IC50 (HDAC8 [1]): 15700 nM
pIC50 (HDAC8 [1]): 4.804
Activity (experimental pIC50) (HDAC8 [1]): 6.678

Compound: O=C(Cc1ccc(-c2csc(NC(=O)c3ccn(CC4CCNCC4)c3-c3ccccc3)c2)s1)NO [compound 9]
Activity (experimental pIC50) (HDAC8 [1]): 6.854

Compound: O=C(/C=C/c1ccc2c(c1)nc(COCc1ccccc1)n2CCc1cccnc1)NO [compound 15]
IC50 (HDAC8 [1]): 180 nM
pIC50 (HDAC8 [1]): 6.745

IC50 (HDAC8 [2]): 41.6 nM
IC50 (HDAC6): 30.9 nM
Compound: CONC(=O)NCc1ccc2cc(OC)ccc2c1 [SD-05, 1-methoxy-3-((6-methoxynaphthalen-2-yl)methyl)urea]

Compound: O=C(Cc1cccc(NC(=O)NC(=O)c2ccccc2)c1)NO [compound 10]
IC50 (HDAC8 [1]): 66000 nM
pIC50 (HDAC8 [1]): 4.18
Activity (experimental pIC50) (HDAC8 [1]): 6.824

Compound: CC(=O)SCC(=O)CCCCCCC(=O)Nc1ccccc1 [compound 11]
IC50 (HDAC8 [1]): 700 nM
pIC50 (HDAC8 [1]): 6.155

Compound: Cc1ccc(S(=O)(=O)NC(=O)Nc2cccc(/C=C/C(=O)NO)c2)cc1 [compound 5]
Activity (experimental pIC50) (HDAC8 [1]): 7.398

Compound: CN(C)CC(C)(C)Cn1c(CCc2ccccc2)nc2cc(/C=C/C(=O)NO)ccc21 [compound 19]
IC50 (HDAC8 [1]): 120 nM
pIC50 (HDAC8 [1]): 6.921

Compound: O=C(Cc1ccccc1)Nc1nc(-c2cc(C(=O)NO)no2)cs1 [compound 16]
IC50 (HDAC8 [1]): 100 nM
pIC50 (HDAC8 [1]): 7
Activity (experimental pIC50) (HDAC8 [1]): 6.469

Compound: O=C(CCCCCNC(=O)NC(=O)c1ccccc1)NO [compound 25]
Activity (experimental pIC50) (HDAC8 [1]): 5.971

Compound: O=C(NO)c1ccc(CN2CCN(C(=O)NC(=O)c3ccccc3)CC2)cc1 [compound 22]
IC50 (HDAC8 [1]): 29 nM
pIC50 (HDAC8 [1]): 7.538
Activity (experimental pIC50) (HDAC8 [1]): 6.337

IC50 (HDAC8 [2]): > 100 nM
IC50 (HDAC6): > 100 nM
Compound: COC(=O)c1ccc(Oc2coc3cc(OCC(N)=O)ccc3c2=O)cc1 [SD-03, methyl 4-((7-(2-amino-2-oxoethoxy)-4-oxo-4H-chromen-3-yl)oxy)benzoate]

Compound: O=C(/C=C/c1ccc(CN(CCN2CCCCC2)C(=O)NC(=O)c2ccccc2)cc1)NO [compound 14]
IC50 (HDAC8 [1]): 350 nM
pIC50 (HDAC8 [1]): 6.456
Activity (experimental pIC50) (HDAC8 [1]): 6.638

Compound: O=C(NO)c1ccc(NC(=S)NN=C(c2ccccc2)c2ccccc2)cc1 [compound 30]
Activity (experimental pIC50) (HDAC8 [1]): 4.633

Compound: C[C@H](N)C(=O)NCc1nnc(-c2ccccc2)o1 [compound 31]
Activity (experimental pIC50) (HDAC8 [1]): 7.009

IC50 (HDAC8 [2]): > 100 nM
IC50 (HDAC6): > 100 nM
Compound: NC(=O)Cc1nc(-c2cc3cc(Cl)ccc3o2)cs1 [SD-04, 2-(4-(5-chlorobenzofuran-2-yl)thiazol-2-yl)acetamide]

Compound: CN(C)Cc1c(C(=O)NCCOc2ccc(C(=O)NO)cc2)oc2ccccc12 [compound 12]
IC50 (HDAC8 [1]): 19700 nM
pIC50 (HDAC8 [1]): 4.706
